Experimental findings from BigSolDB 2.1 are described below.

Structures are written as SMILES.

As to `C=CC1=C(C(=O)O)N2C(=O)[C@@H](NC(=O)/C(=N\OCC(=O)O)c3csc(N)n3)[C@H]2SC1.O.O.O`, the solubility (mole fraction) – broadly, the moles of solute divided by all moles in the saturated solution – (in acetonitrile, 283.1 K) was 8.28e-05; the solubility (mole fraction) (in acetonitrile, 293.1 K) amounted to 0.000105; the solubility (mole fraction) (in acetonitrile, 303.1 K) was 0.000127; the solubility (mole fraction) (in acetonitrile, 313.1 K) was 0.000183; the solubility (mole fraction) (in acetonitrile, 323.1 K) was 0.000292; the solubility (mole fraction) (in ethyl acetate, 283.1 K) was 5.08e-05. Besides, the solubility (mole fraction) (in ethyl acetate, 293.1 K) turned out to be 7.12e-05; the solubility (mole fraction) (in ethyl acetate, 303.1 K) worked out at 0.000129; the solubility (mole fraction) (in ethyl acetate, 313.1 K) is 0.000175; the solubility (mole fraction) (in ethyl acetate, 323.1 K) worked out at 0.00025; the solubility (mole fraction) (in methanol, 283.1 K) came to 0.00635; the solubility (mole fraction) (in methanol, 293.1 K) was 0.00892. Besides, the solubility (mole fraction) is, setting by setting: (in methanol, 303.1 K) 0.0132; (in methanol, 313.1 K) 0.0209; (in methanol, 323.1 K) 0.0309; (in water, 283.1 K) 9.7e-06; (in water, 293.1 K) 1.45e-05; (in water, 303.1 K) 2.02e-05. The solubility (mole fraction) by setting is: (in water, 313.1 K) 3.18e-05; (in water, 323.1 K) 5.09e-05.
For the compound `Cc1c(O)c(=O)ccn1C`, the solubility (mole fraction) came out at 0.000187 (in acetonitrile, 283.1 K); 0.000324 (in acetonitrile, 293.1 K); 0.000599 (in acetonitrile, 303.1 K); 0.00091 (in acetonitrile, 313.1 K); 0.00137 (in acetonitrile, 323.1 K); 6.77e-05 (in ethyl acetate, 283.1 K). Besides, the solubility (mole fraction) runs as follows: (in ethyl acetate, 293.1 K) 0.000104; (in ethyl acetate, 303.1 K) 0.000155; (in ethyl acetate, 313.1 K) 0.000218; (in ethyl acetate, 323.1 K) 0.000318; (in methanol, 283.1 K) 0.00194; (in methanol, 293.1 K) 0.00348. Further, the solubility (mole fraction) worked out at 0.0052 (in methanol, 303.1 K); 0.00775 (in methanol, 313.1 K); 0.0114 (in methanol, 323.1 K); 0.00184 (in water, 283.1 K); 0.00227 (in water, 293.1 K); 0.0031 (in water, 303.1 K). In addition, the solubility (mole fraction) was 0.00414 (in water, 313.1 K) and 0.00532 (in water, 323.1 K).
